Reference: patent US20250099414A1, “COMPOSITIONS AND METHODS FOR TREATING TRIPLE-NEGATIVE BREAST CANCER” (The Board of Regents of the University of Oklahoma, priority 2019, published 2025)
pIC50, pKd: −log10 of the molar value. “Also recorded” adds a separate entry of the source. Like-named read-outs stand apart in the source and are kept apart here.

What was measured:
[1] = tested on: 4T1-strain TNBC cells with PS externalization; test: ANXA5 colorimetric binding (modified indirect ELISA), 4T1; design: species or system murine; settings: 0-20 nM biotinylated ANXA5; 2 mM Ca2+; read-out: dissociation constant of the specific binding
Protocol: (§1) Binding strength was analyzed via a modified indirect ELISA. Cells (50,000 cells/well) were grown onto 24 well plates and fixed with 0.025% glutaraldehyde once cancer cells were 70-80% confluent, or MCF10A noncancerous cells were 100% confluent. Cancer cells were blocked with 0.5% BSA for 1 h at 37° C. Cells were incubated with 0-20 nM of biotinylated ANXA5 for 2 h at 37° C. and 5% CO2. ANXA5 was biotinylated with a Roche biotin protein labeling kit (Roche, Basel, Switzerland), and the level of biotinylation was quantified with a Pierce Biotin Quantification kit (Pierce Biotechnology, Waltham, MA, USA) per manufacturer's instructions. Cells were washed four times with 0.5% BSA to remove unbound ANXA5. […] The supernatant was collected, and the absorbance was read at 450 nm on a BioTek Synergy HT microtiter plate reader (Winooski, VT). […] The dissociation constant was determined using the nonlinear regression one-site total and nonspecific binding model in GraphPad Prism version 9 software (Graph Pad, San Diego California, USA).
(§2) To confirm the ability of the ANXA5 to bind to PS on the surface of TNBC cells, equilibrium binding experiments with increasing concentrations of biotinylated ANXA5 were used. […] After subtracting out 0 nM ANXA5 background absorbance, the non-specific binding was essentially 0, meaning ANXA5 was not binding to the EMT6 and 4T1 cells when Ca^2+ was absent. […]

[2] = tested on: EMT6-strain TNBC cells with PS externalization; test: ANXA5 colorimetric binding (modified indirect ELISA), EMT6; design: species or system murine; settings: 0-20 nM biotinylated ANXA5; 2 mM Ca2+; read-out: dissociation constant of the specific binding
Protocol: as §1, §2

[3] = tested on: healthy MCF10A human breast cells; test: ANXA5 colorimetric binding (modified indirect ELISA), MCF10A
Protocol: as §1, §2

[4] = tested on: mouse EMT6 TNBC cells; settings: for pIC50: read-out: IC50, cell viability, 72 h, concentration of DM1 as free drug or in the conjugate, 2 mM calcium
[5] = tested on: healthy MCF10A cells; test: ANXA5-DM1 and ANXA5 cell viability assay (AlamarBlue), healthy mammary cells; settings: for pIC50: read-out: IC50, cell viability, 72 h, 100% confluent cells
[6] = tested on: mouse 4T1 TNBC cells
[7] = tested on: EMT6 cells; test: ICD study: cytotoxicity (cell death) after 24 hours; assay type: cell-based, murine; settings: 10 nM DM1
[8] = tested on: EMT6 cells; test: Immunogenic cell death: calreticulin surface expression (flow cytometry); assay type: cell-based, murine; settings: 10 nM DM1; 24 h
Protocol: To determine if ANXA5-DM1 induces calreticulin surface expression, flow cytometry was utilized. EMT6 and 4T1 cells were seeded at 25,000 cells/well in 24 well plates and treated 24 h after seeding. […] After 24 h, media was collected into microcentrifuge tubes to collect dead cells. To ensure there would be enough cells, three wells were combined to be one sample. Cells in the plates were then washed with PBS, and 100 μL of trypsin was added to each well. Once 90% of the cells were removed from the plate (2-5 min), cells were added to the microcentrifuge tubes and centrifuged at 500×g for 5 min. Cells were resuspended in 200 μL of 0.5% BSA-PBS and counted to have at least 100,000 cells per sample. Cells were then fixed with 4% paraformaldehyde (PFA, Thermo Fisher Scientific, Waltham MA, USA) for 20 min at 4° C. Cells were then washed two times with 500 μl of 0.5% BSA-PBS at 500×g for 5 minutes. […] After incubation, cells were analyzed on a BD Biosciences Accuri C6 flow cytometer (Franklin Lakes, New Jersey, USA) with excitation at 488 nm, and a 533/30 bandpass filter was used to capture 10,000 gated events per sample. Data was collected and analyzed with BD C6 Accuri software. One sample was composed of three wells, and each sample was analyzed three times. […]

[9] = tested on: EMT6 cells; test: Immunogenic cell death: ATP release (luminescence kit); assay type: cell-based, murine; settings: 24 h
Protocol: To determine if ANXA5-DM1 induces ATP release from cells after treatment, an ATP luminescence kit (Molecular Probes, Eugene, OR, USA) was utilized according to the manufacturer's instructions. […] After 24 h, 10 μL of cell media was added to 90 μL of standard reaction solution in a white plate. Luminescence reading was obtained from the plate reader, and ATP concentration was calculated by comparing the luminescence reading to a standard curve.

[10] = tested on: murine TNBC cells; test: ANXA5-CMB TNBC cell cytotoxicity, statements on both lines together; assay type: cell-based; settings: at 1 μM
Text: (§3) While the cytotoxic activity of the ANXA5-CMB conjugate is excellent against TNBC cells, the cytotoxicity of the conjugate must be tested against healthy vascular and mammary cells.

[11] = tested on: HUVEC cells; test: ANXA5-CMB healthy cell cytotoxicity (resazurin), HUVEC; settings: dose up to 100 μM CMB in the conjugate; 90-100% confluency; 2 mM calcium; 24 hours
Protocol: (§4) Cell viability was assayed by a resazurin assay (n=3-6). […] Cells were treated with 0-100 μM of CMB in the ANXA5-CMB conjugate in growth media fully supplemented with 2 mM calcium to promote ANXA5 binding. After 72 hours, an Alamar Blue assay was utilized to determine viability. Percent viability was determined by comparing treatment groups to the untreated control (0 μM).
(§5) Cells were treated with 0-100 μM CMB in the ANXA5-CMB conjugate in fully supplemented growth medium with 2 mM calcium. Cells were grown to 90-100% confluency. […] Cell viability was measured via an Alamar Blue assay and viability was compared to the control (0 μM) after 24 hours. Data is presented as mean±SD (n=4-8). Cells were treated with 0-100 μM CMB in the ANXA5-CMB conjugate in fully supplemented growth medium with 2 mM calcium. Cells were grown to 90-100% confluency. […] Cell viability was measured via an Alamar Blue assay and viability was compared to the control (μM) after 24 hours. Data is presented as mean±SD (n=4-8).

[12] = tested on: MCF10A cells; test: ANXA5-CMB healthy cell cytotoxicity (resazurin), MCF10A; assay type: cell-based, human; settings: 90-100% confluency; 2 mM calcium; 24 hours
Protocol: as §4, §5

[13] = tested on: EMT6; test: ANXA5-CMB TNBC cell cytotoxicity, EMT6; assay type: cell-based, murine; settings: 24 hours
Text: as §3

[14] = tested on: 4T1; test: ANXA5-CMB TNBC cell cytotoxicity, 4T1; assay type: cell-based, murine; settings: 24 hours
Text: as §3

[15] = tested on: EMT6 cells; test: ANXA5-VPA TNBC cytotoxicity (Alamar Blue), EMT6; assay type: cell-based, murine; settings: 48 hours, VPA in the conjugate or free VPA, 10^−4 to 10 mM
Protocol: (§6) After confirming the conjugation of VPA to ANXA5, the cytotoxicity of the ANXA5-VPA conjugate was tested in two murine TNBC cell lines (EMT6 and 4T1). […] EMT6 and 4T1 cells were seeded at 5,000 cells/well in 96 well plates and treated 48 hours after seeding. Cells were treated with 10^−4 to 10 mM of VPA in the ANXA5-VPA conjugate or free VPA growth medium fully supplemented with 2 mM of calcium to promote ANXA5 binding. After 48 hours, cell viability was analyzed via a fluorescent Alamar Blue assay. Percent viability was determined by normalizing the control (0 mM VPA) to 100% and comparing each treatment group to the control (n=3).

[16] = cited from earlier work
[17] = tested on: 4T1 cells; test: ANXA5-VPA TNBC cytotoxicity (Alamar Blue), 4T1; assay type: cell-based, murine; settings: 48 hours, VPA in the conjugate or free VPA, 10^−4 to 10 mM
Protocol: as §6

[18] = tested on: murine TNBC cell lines (EMT6 and 4T1); test: ANXA5-VPA TNBC cytotoxicity, statement on both lines together; assay type: cell-based; settings: 48 hours
Protocol: as §6

[19] = read-out: IC50, cell viability, 72 h, concentration of DM1 as free drug or in the conjugate, 2 mM calcium

Molecule: ANXA5: recombinant annexin A5 produced in E. coli; binds phosphatidylserine in a Ca2+-dependent manner
- pKd [1]: 8.64
- pKd [2]: 8.94
- dissociation constant (Kd) ([3]; cells grown to confluence): not detectable
- specific binding of ANXA5 to the cells ([3]; total minus nonspecific binding): no specific binding; also recorded: no ANXA5-PS binding was observed

Molecule: COc1cc2cc(c1Cl)N(C)C(=O)C[C@H](OC(=O)[C@H](C)N(C)C(=O)CCS)[C@]1(C)O[C@H]1[C@H](C)[C@@H]1C[C@@](O)(NC(=O)O1)[C@H](OC)/C=C/C=C(\C)C2 [DM1, Mertansine, reference compound]
- pIC50 [4]: 7.55
- pIC50 ([5]; concentration of DM1): 6.80
- pIC50 [6, 19]: 6.49
- cell death (cytotoxicity) [7]: significantly increased cell death

Molecule: ANXA5-DM1: mertansine (DM1) linked to lysine residues of recombinant annexin A5 with the crosslinker sulfo-SMCC
- potency (IC50) relative to free DM1 ([4]; 72 h viability assay): more than 2 orders of magnitude
- pIC50 [4]: 9.68
- calreticulin surface expression (median fluorescent intensity) [8]: significantly increased calreticulin surface expression; also recorded: significant increase
- cytotoxicity to healthy breast cells ([5]; 100% confluence, compared with free DM1, doses up to 48 μM): significantly less cytotoxic; also recorded: does not have cytotoxic effects
- pIC50 ([5]; concentration of DM1): < 5.30
- pIC50 ([5]; doses up to 48 μM): < 4.32
- potency (IC50) relative to free DM1 ([6]; 72 h viability assay): more than 2 orders of magnitude
- pIC50 [6, 19]: 9.07
- pIC50 ([6]; read-out: equivalent IC50 based on the ANXA5 concentration, assuming 4 moles DM1 per mole ANXA5, from 0.85 nM DM1): 9.68
- cell death (cytotoxicity) [7]: significantly increased cell death
- ATP release ([9]; 10 nM DM1, versus free DM1 or control): significantly increased ATP release; also recorded: significant increase
- ATP released relative to free DM1 ([9]; 10 nM): ~10 times

Molecule: ANXA5-CMB: chlorambucil linked to ANXA5 lysine residues via EDC crosslinking chemistry
- cytotoxicity [10]: 100%
- effect on cell viability [11]: did not impact viability
- pIC50 [12]: 5.22
- pIC50 [13]: 6.38
- IC50 ratio (CMB / ANXA5-CMB) [13]: 241
- pIC50 [14]: 5.57
- IC50 ratio (CMB / ANXA5-CMB) [14]: 57

Molecule: O=C(O)CCCc1ccc(N(CCCl)CCCl)cc1 [CMB, Chlorambucil, reference compound]
- pIC50 ([13]; Mus musculus, EMT6): 3.99
- pIC50 ([14]; Mus musculus, 4T1): 3.81

Molecule: CCCC(CCC)C(=O)O [VPA, Valproic acid]
- IC50 concentration [15]: could not be obtained with a dose of up to 10 mM; also recorded: could not be calculated
- pIC50 ([16]; 72-96 hours, read-out: concentration required to achieve an IC50 value): < 3.00
- dose required to be effective in vitro ([16]; delivered alone, after 72 hours): 1 to 10 mM
- IC50 concentration [17]: could not be obtained with a dose of up to 10 mM; also recorded: could not be calculated

Molecule: ANXA5-VPA
- pIC50 ([15]; read-out: IC50 concentration): ~5.00
- pIC50 ([17]; read-out: IC50 concentration): ~5.00
- lowest dose with significantly increased cell death compared to the free drug control [18]: 97 nM
